# Measurements published in patent publication US20120237651A1 (priority 2002, published 2012).
# Several values for one entry are separate records, joined by “and”; a condition that tells them apart may be missing. Equal values may be shown once. Where a name gives a salt, the structure may show the parent alone. Read-outs that look alike come from different tables or passages of the source.
# Assays:
# DON contamination [1] = test: Field test, mixed use (1): DON contamination concentration by HPLC-UV (Example 3); assay type: in vivo, Wheat (cultivar: Haruyutaka)
# Method: Wheat (cultivar: Haruyutaka) was seeded on Apr. […] A suspension containing potassium phosphite and various fungicidal agents was prepared in a liquid mixture made up of a spreading agent (Gramine S: supplied from Hokkai Sankyo Co., Ltd.) and water. Using potassium phosphite as the compound A, 0.070% P2O5, and the 0.006 to 0.025% fungicidal agent for agri-horticulture for the wheat as the compound B, water solution containing them was prepared, and 100 L thereof per 10 a was sprayed on leaves in the following growth stages. That is, the first spray (June 24, heading date), the second (June 30, flowering stage), the third (July 9) were performed. The harvest was performed on August 12 (50 days after the heading date) by harvesting the wheat in 3.4 m^2 in each section. […] The DON contamination concentration was analyzed using HPLC-UV method in officially fixed methods shown by the Minister of Health, Labor and Welfare. Quantitative analysis was performed by repeating three times, and the quantitative value was an average value thereof.
# Preparation of analysis sample solutions and the analysis procedure are briefly described.
# To 50 g of the whole grain powder, 85% acetonitrile was added, vigorously agitated for 30 min, and subsequently sonicated for 10 min.
# After eliminating impurities with filter paper, a filtrate was purified using a pretreatment column MultiSep #227 to make a solution for analysis.
# The test solution for analysis was injected into high performance liquid chromatography, and DON was detected by ultraviolet rays.
# Fusarium head blight [2] = assay type: in vivo, Wheat (cultivar: Haruyutaka)
# DON contamination [3] = test: Field test, mixed use (2): DON contamination concentration by ELISA (Example 4); assay type: in vivo, Wheat (cultivar: Haruyutaka)
# Fusarium head blight [4] = assay type: in vivo, Wheat (cultivar: Haruyutaka); remark: listed apart in the source
# Fusarium head blight [5] = assay type: in vivo, Wheat (cultivar: Haruyutaka); remark: listed apart in the source
# DON contamination [6] = test system: DON contamination; parameters: species or system Wheat (cultivar: Haruyutaka); conditions: in vivo
# DON contamination [7] = test: Field test, single use: DON contamination concentration of wheat whole grain powder by ELISA (Example 1); conditions: for DON concentration: 3 foliar sprays
# Method: Wheat (cultivar: Haruyutaka) was seeded on Apr. 19, 2002, and cultivated according to a conventional cultivating standard (Hokkaido, Agriculture Department, 1995) to establish test sections with 6.75 m^2 per section (3 repeats). […] That is, the first spray (June 28, flowering date), the second spray (Jul. 8, 10 days after the flowering date, and the third spray (Jul. 18, 20 days after the flowering date) were performed. A conventional control for the purpose of controlling plant pathogens and plant insects was performed together. That is, the first [June 20, azoxystrobin (2000 times dilution)+fenitrothion (1000 times dilution)], the second [tebuconazole (June 28, 2000 times dilution)+sumithione (1000 times dilution)], and the third [July 8, propiconazole (2000 times dilution)+fenitrothion (1000 times dilution)], the forth [July 17, tebuconazole (2000 times dilution)+fenitrothion (1000 times dilution)] were performed. As controls, the test section where only the conventional control was given and the test section without any control were established. Harvest was performed by harvesting the wheat in 4 m^2 in the test sections on August 9 (52 days after the heading date). After the harvest, the wheat was applied on a rice grader with 2.2 mm opening of screen to make selected grains, which were then pulverized by a rapid pulverizer to make whole grain powder. The whole grain powder was used as a sample for analysis. The DON contamination concentration was analyzed by ELISA method using commercially available Rida Screen Fast Don supplied from r-Biopharm.
# Preparation of analysis sample solutions and analysis procedure are briefly described.
# To 5 g of the whole grain powder, 100 ml of water was added, and vigorously agitated for 10 min to make a DON extract solution.
# The DON extract solution was centrifuged at high speed, and the supernatant was used for the ELISA analysis.
# According to the method described on ELISA kit, various reagents were added, and subsequently an absorbance of each test solution was measured.
# The DON concentration of each test solution was read out from a standard curve made using DON standard solutions.
# [8] = test system: Fusarium graminearum having DON production capacity; assay type: cell-based
# Fusarium graminearum [9] = assay type: cell-based; conditions: potassium phosphite 5.6%; for Ergosterol peak area value: 27° C.
# [10] = test system: Fusarium graminearum having DON production capacity; assay type: cell-based; remark: listed apart in the source
# Fusarium graminearum [11] = assay type: cell-based; conditions: for Ergosterol peak area: day 28 of culture
# [12] = Metconazole 0.006% mixed with potassium phosphite 0.07% P2O5
# [13] = Metconazole 0.006%, without potassium phosphite
# [14] = Tebuconazole 0.020% mixed with potassium phosphite 0.07% P2O5
# [15] = Tebuconazole 0.020%, without potassium phosphite
# [16] = Tebuconazole 0.020% mixed with potassium phosphite 0.070% in P2O5
# [17] = Trifloxystrobin 0.025% mixed with potassium phosphite 0.070% in P2O5
# [18] = Trifloxystrobin 0.025%, without potassium phosphite
# [19] = sulfur 0.125% mixed with potassium phosphite 0.070% in P2O5
# [20] = sulfur 0.125%, without potassium phosphite
# [21] = active ingredient A 0.112% (as P2O5), conventional control
# [22] = active ingredient A 0.038% (as P2O5), conventional control
# [23] = active ingredient A 0.070% (as P2O5), conventional control
# [24] = active ingredient A 0.112% (as P2O5), no control
# [25] = potassium phosphite 0.07% P2O5 alone, no active ingredient B
# [26] = potassium phosphite 0.070% in P2O5 alone, no active ingredient B
# [27] = Iminoctadine acetate 0.025% mixed with potassium phosphite 0.07% P2O5
# [28] = Iminoctadine acetate 0.025%, without potassium phosphite
# [29] = Propiconazole 0.017% mixed with potassium phosphite 0.07% P2O5
# [30] = Propiconazole 0.017%, without potassium phosphite
# [31] = Propiconazole 0.017% mixed with potassium phosphite 0.070% in P2O5
# [32] = active ingredient A 0.120% (as P2O5), conventional control
# [33] = Kresoxim-methyl 0.021% mixed with potassium phosphite 0.07% P2O5
# [34] = Kresoxim-methyl 0.021%, without potassium phosphite
compound,measurement,setting,value
"CC1(C)CCC(Cc2ccc(Cl)cc2)C1(O)Cn1cncn1 (racemic) [Metconazole, (1RS,5RS)-5-(4-chlorobenzyl)-2,2-dimethyl-1-(1-H-1,2,4-triazol-1-ylmethyl)cyclopentanol]",DON concentration,DON contamination [1]; [12],0.10 ppm
same,DON concentration,DON contamination [1]; [13],0.34 ppm
same,Incidence rate for panicles,Fusarium head blight [2]; [12],1.0%
same,Number of diseased spikelets/panicle,Fusarium head blight [2]; [12],0.010
same,Incidence rate for panicles,Fusarium head blight [2]; [13],0.7%
same,Number of diseased spikelets/panicle,Fusarium head blight [2]; [13],0.007
"CC(C)(C)C(O)(CCc1ccc(Cl)cc1)Cn1cncn1 (racemic) [Tebuconazole, (RS)-1-p-chlorophenyl-4,4-dimethyl-3-(1H-1,2,4-triazol-1-ylmethyl)pentan-3-ol]",DON concentration,DON contamination [1]; [14],0.38 ppm
same,DON concentration,DON contamination [1]; [15],0.39 ppm
same,Incidence rate for panicles,Fusarium head blight [2]; [14],1.0%
same,Number of diseased spikelets/panicle,Fusarium head blight [2]; [14],0.010
same,DON concentration,DON contamination [3]; [16],0.08 ppm
same,DON concentration,DON contamination [3]; [15],0.16 ppm
same,Incidence rate for panicles,Fusarium head blight [4]; [16],5.0%
same,Number of diseased spikelets/panicle,Fusarium head blight [4]; [16],5.0
CON=C(C(=O)OC)c1ccccc1CON=C(C)c1cccc(C(F)(F)F)c1 [Trifloxystrobin],DON concentration,DON contamination [3]; [17],0.12 ppm
same,DON concentration,DON contamination [3]; [18],0.35 ppm
same,Incidence rate for panicles,Fusarium head blight [4]; [17],3.0%
same,Number of diseased spikelets/panicle,Fusarium head blight [4]; [17],3.0
same,Incidence rate for panicles,Fusarium head blight [4]; [18],4.3%
same,Number of diseased spikelets/panicle,Fusarium head blight [4]; [18],5.0
S1SSSSSSS1 [sulfur],DON concentration,DON contamination [3]; [19],0.43 ppm
same,DON concentration,DON contamination [3]; [20],1.85 ppm
same,Incidence rate for panicles,Fusarium head blight [4]; [19],8.7%
same,Number of diseased spikelets/panicle,Fusarium head blight [4]; [19],8.7
same,Incidence rate for panicles,Fusarium head blight [4]; [20],8.7%
same,Number of diseased spikelets/panicle,Fusarium head blight [4]; [20],10.3
potassium phosphate,Incidence rate of Fusarium head blight for panicles,Fusarium head blight [5]; [21],0.0%
same,DON concentration diseased grain,DON contamination [6],86.9 ppm
same,DON concentration healthy grain,DON contamination [6],0.06 ppm
same,DON inhibitory effect,"DON contamination [7]; Example 1, summary in text",low
same,DON concentration,DON contamination [7]; [21],4.66 ppm
potassium phosphite,Incidence rate of Fusarium head blight for panicles,Fusarium head blight [5]; [22],0.3%
same,Incidence rate of Fusarium head blight for panicles,Fusarium head blight [5]; [23],0.0%
same,Incidence rate of Fusarium head blight for panicles,Fusarium head blight [5]; [21],0.9%
same,Incidence rate of Fusarium head blight for panicles,Fusarium head blight [5]; [24],1.2%
same,DON concentration healthy grain,DON contamination [6],0.05 ppm and 0.04 ppm
same,DON contamination concentration in diseased grains,DON contamination [6],decreased depending on the given concentration of potassium phosphite
same,DON concentration,DON contamination [1]; [25],0.77 ppm
same,Incidence rate for panicles,Fusarium head blight [2]; [25],4.3%
same,Number of diseased spikelets/panicle,Fusarium head blight [2]; [25],0.050
same,DON concentration,DON contamination [3]; [26],0.57 ppm
same,DON contamination amount,DON contamination [3]; single agent treatment with the compound A,at a low level
same,Incidence rate for panicles,Fusarium head blight [4]; [26],10.3%
same,Number of diseased spikelets/panicle,Fusarium head blight [4]; [26],11.0
same,DON,[8],ND. (key: ND.: ND means that the analytical value is less than the detection limit (0.222 ppm) of the ELISA analysis kit.)
same,DON production,[8],not detected
same,Ergosterol peak area value,Fusarium graminearum [9]; 7 days of culturing,17952
same,Ergosterol peak area value,Fusarium graminearum [9]; 14 days of culturing,115921
same,Ergosterol peak area value,Fusarium graminearum [9]; 21 days of culturing,372377
same,Ergosterol peak area value,Fusarium graminearum [9]; 28 days of culturing,350972
same,amount of ergosterol (indicator of the amount of fungi),Fusarium graminearum [9]; course over culture,reached a plateau on the 21st day
same,DON amount,[10],significantly lower than that in the non-treatment
same,Ergosterol peak area,Fusarium graminearum [11]; treatment concentration 0.028%,1810454
same,Ergosterol peak area,Fusarium graminearum [11]; treatment concentration 0.056%,1834861
same,Ergosterol peak area,Fusarium graminearum [11]; treatment concentration 0.112%,1769582
same,Ergosterol peak area,Fusarium graminearum [11]; treatment concentration 0.560%,1921693
same,Ergosterol peak area,Fusarium graminearum [11]; treatment concentration 2.800%,85891
same,inhibitory effect on the fungal amount,"Fusarium graminearum [11]; water solution of 0.056 to 0.560% potassium phosphite, compared to non-treatment",inhibitory effect on the fungal amount at a moderate degree
same,inhibitory effect on the fungal amount,Fusarium graminearum [11]; water solution of 2.800% potassium phosphite,remarkable inhibitory effect on the fungal amount
same,DON concentration,DON contamination [7]; [22],2.41 ppm
same,DON concentration,DON contamination [7]; [23],0.59 ppm
same,DON concentration,DON contamination [7]; [21],0.39 ppm
same,DON concentration,DON contamination [7]; [24],0.69 ppm
"CC(=O)O.CC(=O)O.CC(=O)O.NC(N)=NCCCCCCCCNCCCCCCCCN=C(N)N [Iminoctadine acetate, 1,1′-iminodi(octamethylene)diguanidium=triacetate]",DON concentration,DON contamination [1]; [27],0.20 ppm
same,DON concentration,DON contamination [1]; [28],1.04 ppm
same,Incidence rate for panicles,Fusarium head blight [2]; [27],3.0%
same,Number of diseased spikelets/panicle,Fusarium head blight [2]; [27],0.030
same,Incidence rate for panicles,Fusarium head blight [2]; [28],1.7%
same,Number of diseased spikelets/panicle,Fusarium head blight [2]; [28],0.017
"CCCC1COC(Cn2cncn2)(c2ccc(Cl)cc2Cl)O1 (stereo not drawn) [Propiconazole, 1-[2-(2,4-dichlorophenyl)-4-propyl-1,3-dioxolan-2-ylmethyl)-1H-1,2,4-triazole]",DON concentration,DON contamination [1]; [29],0.72 ppm
same,DON concentration,DON contamination [1]; [30],1.01 ppm
same,Incidence rate for panicles,Fusarium head blight [2]; [29],2.7%
same,Number of diseased spikelets/panicle,Fusarium head blight [2]; [29],0.027
same,DON concentration,DON contamination [3]; [31],0.11 ppm
same,DON concentration,DON contamination [3]; [30],0.57 ppm
same,Incidence rate for panicles,Fusarium head blight [4]; [31],4.7%
same,Number of diseased spikelets/panicle,Fusarium head blight [4]; [31],5.0
"CCO[PH](=O)O [Fosetyl, aluminium salt (common name: fosetyl) of tris(ethylphosphonate)]",Incidence rate of Fusarium head blight for panicles,Fusarium head blight [5]; [32],0.0%
same,DON concentration diseased grain,DON contamination [6],11.0 ppm
same,DON concentration healthy grain,DON contamination [6],0.96 ppm
same,DON concentration,DON contamination [7]; [32],0.84 ppm
Iminoctadine albesilate,DON concentration,DON contamination [3]; Iminoctadine albesilate 0.030% mixed with potassium phosphite 0.070% in P2O5,0.00 ppm
same,DON concentration,"DON contamination [3]; Iminoctadine albesilate 0.030%, without potassium phosphite",0.22 ppm
same,Incidence rate for panicles,Fusarium head blight [4]; in vivo,7.3% and 2.7%
"CO/N=C(/C(=O)OC)c1ccccc1COc1ccccc1C [Kresoxim-methyl, methyl=(E)-2-methoxyimino[α-(o-tolyloxy)-o-tolyl]acetate]",DON concentration,DON contamination [1]; [33],0.51 ppm
same,DON concentration,DON contamination [1]; [34],1.05 ppm
same,Incidence rate for panicles,Fusarium head blight [2]; [33],0.7%
same,Number of diseased spikelets/panicle,Fusarium head blight [2]; [33],0.007
same,Incidence rate for panicles,Fusarium head blight [2]; [34],0.3%
same,Number of diseased spikelets/panicle,Fusarium head blight [2]; [34],0.003
